The record followed here is patent US7094868B2, “Peptides for recognition and targeting of GLIAL cell tumors” (Auburn University, priority 2002, dated 2006).

The subject of one series is CTX TNA2 astrocytes. Nature of the series: Evaluation of binding selectivity: phage output/input titer on normal astrocytes. It is filed as cell-based, rat. To be noted: for binding selectivity, RG2 glioma versus normal astrocytes: cell-attached phage recovered by elution, FIGS. 7, 10. As to the method: (§1) All analyses were performed in triplicate.
In the next series the test system is F98 glioma cells. Kind of series: Evaluation of binding selectivity: phage output/input titer on F98 glioma. To be noted: eluted phage. It counts as cell-based, rat. As to the method:
as §1

Series [1] concerns RG2 glioma cells. Nature of the series: Evaluation of binding selectivity: phage output/input titer, RG2 glioma versus control cell lines overall. It counts as cell-based, rat. As to the method: as §1
Series [2] relates to human glioma cell lines SW1088, M059K, A172, and HS 683. Nature of the series: Phage clone binding to human glioma cell lines. It counts as cell-based. The conditions noted are these: A172, HS 683. As for the experimental part:
The ELRGDSLP phage clone was tested further for binding to four different human glioma cell lines: SW1088, M059K, A172, and HS 683, all obtained from the ATCC.

A further series deals with αv, β3, and β1 integrins. Kind of series: Affinity precipitation of RG2 cell membrane proteins with cross-linked phage, Western blot with anti-integrin antibodies. It is filed as binding, rat. As to the method: Experiments were performed to isolate and purify the RG2-cell-specific protein that was responsible for binding of the ELRGDSLP phage clone to glioma cells. The basic approach was to perform precipitation of RG2 cell membrane proteins by using the phage clone to form an affinity matrix.
To prepare the RG2 cell membrane proteins, RG2 glioma cells were grown in 25 cm^2 tissue culture flasks. The growing medium was removed from the flasks and cells were collected in PBS buffer containing protease inhibitors. Cells were then pelleted by centrifugation and lysed with octylglucoside buffer (10 mM Tris-HCl, pH 7.5, 140 mM NaCl, 10 mM octylglucoside (Sigma), and protease inhibitor cocktail (Sigma); 5 ml per flask). The cell lysate was clarified by centrifugation and the supernatant containing cell membrane proteins was then used for isolation of glioma-specific receptor proteins.
Cross-linked phage were prepared by the method of Smith et al. (1998) (J. Immunol. Methods 215: 151–161) using a water-soluble, multifunctional dextran polymer. After that, ELRGDSLP cross-linked phage were incubated with the clarified lysate of RG2 cells. Following incubation, the crosslinked phage-receptor protein complexes were pelleted by centrifugation at 10,000 rpm for 15 minutes. Phage particles that were not cross-linked remained in the buffer and were discarded. […]

The subject of series [3] is RG2 glioma cells. Nature of the series: Quantitation of binding specificity: phage output/input titer on RG2 glioma cells. It counts as cell-based, rat. The conditions noted are these: cell-surface-bound phage eluted with low pH buffer; 10^9 cfu/flask, 1 hour, room temperature; FIG. 3. As to the method: as §1
Series [4] relates to BRL 3A hepatocytes, H9c2(2-1) cardiac myoblasts, 27FR fibroblasts. The conditions noted are these: cell-attached phage recovered by elution; FIGS. 4, 7, 10. As to the method: In order to evaluate the binding specificity conferred by the peptides, various phage clones were incubated with RG2 glioma cells. Two control phage were compared to the RG2 affinity-selected candidate phage clones (see FIG. 3). […] For the quantitation assay, RG2 cells were grown in 25 cm^2 flasks for approximately 48 hours to sub-confluence. One hour prior to application of phage, the normal media was replaced with serum-free media and incubation was continued. Each phage clone (10^9 cfu/flask) was added to a flask of cells in 2 ml of washing/blocking buffer and incubated for 1 hour at room temperature. Following incubation, unbound phage were removed by washing the cells remaining in the flasks 8 times with 4 ml of cold washing/blocking buffer for 5 minutes per wash. Cell surface-bound phage were recovered by incubation with 1 ml of elution buffer for 10 minutes on ice. The eluate was removed from flasks and neutralized with 1 M Tris. Cells were washed again two times with washing/blocking buffer and lysed by incubation with 1 ml lysis buffer for 30 min at room temperature; the lysate was processed as above. Phage titers were determined by infection of bacteria and are presented in FIG. 3 as a ratio of output to input phage. All analyses were performed in triplicate. […]

“DLTKSTAP [phage clone displaying the synthetic peptide on major coat protein pVIII]”: the “binding selectivity, RG2 glioma versus normal astrocytes” value in the series with CTX TNA2 astrocytes is “approximately 14 fold”.
As for “DSTKSGNM [phage clone displaying the synthetic peptide on major coat protein pVIII]”, in the series with F98 glioma cells (FIG. 7), the “binding to F98 glioma compared to RG2 glioma (in words)” value is reported as “even better binding”. In the series with CTX TNA2 astrocytes, the “binding selectivity, RG2 glioma versus normal astrocytes” value amounted to 25 fold.
Consider “DYDMTKNT [phage clone displaying the synthetic peptide on major coat protein pVIII]”, for which the “binding selectivity for glioma cells compared to control cells (in words)” value in the series on RG2 glioma cells [1] (RG2 and F98 glioma, astrocytes, myoblasts, hepatocytes, fibroblasts) is reported as “very selective binding”.
Take “ELRGDSLP [phage clone displaying the synthetic peptide on major coat protein pVIII]”: in the series on RG2 glioma cells [1] (lysis, FIGS. 5 and 11), the “output/input phage ratio compared between ELRGDSLP and ESRGDSYA phage clones” value is given as “significantly lower”. Besides, the “binding to human glioma cell lines (in words)” value in series [2] is “pronounced glioma-specific binding properties”. Besides, in the series with αv, β3, and β1 integrins, the “signal with anti-integrin antibodies in phage-purified protein eluate” value was “did not produce any positive signal”.
On to “VDLPQHGQ [phage clone displaying the synthetic peptide on major coat protein pVIII]”, for which the “ratio of output to input phage (apparent binding affinity) on RG2 glioma cells” value in the series with RG2 glioma cells [3] was “highest”.
Consider VGLPEHTQ, for which the “ratio of output to input phage (apparent binding affinity) on RG2 glioma cells” value in the series on RG2 glioma cells [3] is recorded as “highest”. For the same sequence, the “binding to F98 glioma as % of RG2-binding level” value in the series with F98 glioma cells (FIG. 4) was found to be 41%. Also, the “binding to normal astrocytes as % of RG2-binding level” value in the series on CTX TNA2 astrocytes (eluted phage, FIG. 4) turned out to be 64%. In series [4], the “binding selectivity, RG2 glioma versus hepatocytes, myoblasts and fibroblasts” value was “approximately 5 fold”.
